Measured values from patent publication US9950074B2, “Composition and delivery vehicle for active agents and methods therefor” (Georg-August-Universität Göttingen Stiftung Öffenlichen …, priority 2012, dated 2018).

Tests used:
[1] = biological target: reduced folate carrier (RFC, SLC19A1) (Homo sapiens, UniProt P41440); settings: read-out: influx Km of the RFC; cited from earlier work
[2] = test system: primary rat choroids plexus epithelial cells; settings: read-out: Km of FRα-dependent uptake; low extracellular folate concentrations; cited from earlier work
[3] = test system: Z310 cells stably expressing FRα; experiment: [3H]5MTHF uptake with transporter inhibitors; format: cell-based, rat; settings: 12.5 nM [3H]5MTHF, 1 hour at 37° C.
Experimental: Z310 cells stably expressing FRα were incubated with 12.5 nM [^3H]5MTHF alone or together with TC, MTX, PAH, probenecid and digoxin for 1 hour at 37° C. Subsequently, cells were lysed and intracellular radioactivity was measured.
We performed additional experiments to evaluate FRα-independent transport processes in Z310 cells at physiological MTHF concentration (12.5 nM). A couple of organic anion transporters are known to be expressed in Z310 cells (Halwachs et al., 2011). […] At this concentration MTX is known to block FR-mediated MTHF binding as well.

[4] = test system: Z310 cells stably transfected with FRα; experiment: apical release (shedding) of [3H]5MTHF from filter-grown Z310 cells; format: cell-based; settings: FRα-transfected Z310 cells loaded 1 h with [3H]5MTHF; 7 μM monensin or 0.5 mg/ml rat transferrin
Experimental: After three washing steps, cells were incubated with fresh RPMI medium containing either 7 μM monensin (Mon) or 0.5 mg/ml rat transferrin (Trans) or contained no supplementation. Samples from the apical and basolateral compartment were removed at the indicated time points. Subsequently, cells were lysed and radioactivity was measured in medium samples and cell lysates. Data are means±s.e.m. of three independent experiments.
For 5MTHF uptake and transport measurements in Z310 cells, 4.2*104 cells were seeded in laminin coated transwell culture plates (0.3 cm2 growth area, 0.4 μm pore size) in folate-free RPMI medium. To test the barrier function, dye permeability assays with lucifer yellow were performed. Cells were used for experiments when the permeability was below 1% per hour. […] Radioactivity in medium samples and cell lysates was measured in a liquid scintillation spectrometer.
FRα-transfected or vector-transfected Z310 cells were grown in a two chamber transwell system and [^3H]5MTHF was either given into the basolateral or apical compartment. After a 1 h incubation with [^3H]5MTHF the medium was replaced by fresh medium and the time-dependent emergence of [^3H]5MTHF in both compartments was detected.

[5] = test system: primary porcine choroid plexus epithelial cells (PCPEC); experiment: apical transport of 5MTHF in primary PCPECs; format: cell-based; settings: PCPEC loaded with 25 nM [3H]5MTHF for 24 hours; 7 μM monensin
Experimental: Filter-grown PCPECs were loaded with 25 nM [^3H]5MTHF for 24 hours. Cells were then incubated with 7 μM monensin or left untreated. Radioactivity from medium samples was measured at the indicated time points. […] Data are means±s.e.m. of two independent experiments, each done in triplicate.
Porcine choroid plexus epithelial cells (PCPECs) were prepared basically as described previously (Hakvoort et al., 1998: J Neurochem 71, 1141-1150). Isolated PCPECs were seeded in laminin-coated transwell culture plates (0.4 μm pore size, Costar, Cambridge, Mass.) with a diameter of 12 mm using a seeding density of 20 mg wet tissue/cm2. The cell culture medium (DMEM-Ham's F-12, Biochrom, Berlin, Germany) was supplemented with 10% fetal calf serum, 4 mM glutamine, 5 μg/ml insulin, 100 U/mL penicillin and 100 μg/mL streptomycin. Cytosine arabinoside (20 μM) was added to suppress the growth of contaminating cells. After reaching confluence at days in vitro (DIV) 8, growth medium was replaced by serum-free culture medium (SFM) to support cell differentiation and improve barrier function. At DIV 10, the medium was replaced by folate-free RPMI medium (Invitrogen) without serum.
Filter-grown PCPEC were loaded with 25 nM [^3H]5MTHF for 24 hours. Subsequently, medium was changed and cells were treated with 7 μM monensin or left untreated.

[6] = test system: primary mixed cortical cultures; experiment: internalization assay in primary mixed cortical cultures; format: cell-based, neonatal mice; settings: 2 hours at 37° C.
Experimental: Disassociated neonatal cortices from postnatal day 0-2 mice were cultured in DMEM supplemented with 10% fetal calf serum, 1% GlutaMAX (Invitrogen), 100 U/mL penicillin and 100 μg/mL streptomycin on laminin- and poly-L-lysin-coated coverslips at 37° C. in 5% CO2. Medium was changed every 3-4 days. At DIV 7-14, mixed cortical cultures consisting of oligodendrocytes, cortical neurons and microglia on an astrocyte monolayer were obtained.
Mixed cortical cultures were obtained form neonatal mice and immediately plated on coverslips and incubated in the respective growth medium. Before the internalization assay, exosomes were purified from Z310 cells, stably transfected with FRα or vector and labelled with PKH26 and FA-FITC as described above. The uptake was performed by incubating the cell cultures with exosome dilutions for 2 hours at 37° C. and 5% CO2. Cells were then fixed, permeabilized and stained with the respective antibodies for immunofluorescence analysis.
We have unexpectedly disclosed FRα as exosomal cargo in the CSF. To further understand the biological function of this transport mechanism we injected exosomes derived from FRα-transfected or vector-transfected Z310 cells into the lateral ventricle of C57BL/6 mice. […] After incubating the cells for 2 hours at 37° C., cells were fixed and analyzed by immunofluorescence microscopy.

reduced folate carrier (RFC, SLC19A1), sequence (P41440 whole entry): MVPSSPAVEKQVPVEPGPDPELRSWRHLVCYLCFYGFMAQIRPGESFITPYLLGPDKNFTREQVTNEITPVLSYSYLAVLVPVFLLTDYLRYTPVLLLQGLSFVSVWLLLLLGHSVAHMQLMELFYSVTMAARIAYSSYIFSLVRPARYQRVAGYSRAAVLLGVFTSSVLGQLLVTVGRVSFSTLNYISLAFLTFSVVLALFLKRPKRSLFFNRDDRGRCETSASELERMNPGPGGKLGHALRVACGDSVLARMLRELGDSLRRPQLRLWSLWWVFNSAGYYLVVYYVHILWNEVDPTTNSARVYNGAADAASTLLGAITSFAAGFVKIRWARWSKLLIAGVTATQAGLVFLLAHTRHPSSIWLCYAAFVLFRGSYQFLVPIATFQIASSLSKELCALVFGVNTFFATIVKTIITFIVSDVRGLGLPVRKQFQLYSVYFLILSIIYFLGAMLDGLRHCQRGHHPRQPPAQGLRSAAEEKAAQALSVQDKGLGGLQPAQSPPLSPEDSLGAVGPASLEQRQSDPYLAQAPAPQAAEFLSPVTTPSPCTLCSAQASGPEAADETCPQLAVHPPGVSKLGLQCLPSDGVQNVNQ

CN1c2c(nc(N)[nH]c2=O)NCC1CNc1ccc(C(=O)N[C@@H](CCC(=O)O)C(=O)O)cc1 (some centres unmarked) [5MTHF, 5-methyltetrahydrofolate]
Km [1]: 2 to 7 µM
Km [2]: ~0.0095 µM

CN(Cc1cnc2nc(N)nc(N)c2n1)c1ccc(C(=O)N[C@@H](CCC(=O)O)C(=O)O)cc1 [MTX, methotrexate]
effect on uptake of [3H]5MTHF ([3]; inhibitor at 10 μM): significantly reduced 5MTHF uptake

C[C@H]1O[C@@H](O[C@H]2[C@@H](O)C[C@H](O[C@H]3[C@@H](O)C[C@H](O[C@H]4CC[C@@]5(C)[C@H](CC[C@@H]6[C@@H]5C[C@@H](O)[C@]5(C)[C@@H](C7=CC(=O)OC7)CC[C@]65O)C4)O[C@@H]3C)O[C@@H]2C)C[C@H](O)[C@@H]1O [digoxin]
effect on uptake of [3H]5MTHF [3]: none of the inhibitors reduced the uptake

CC[C@@]1([C@@H]2O[C@@H]([C@H]3O[C@@](O)(CO)[C@H](C)C[C@@H]3C)C[C@@H]2C)CC[C@H]([C@]2(C)CC[C@]3(C[C@H](O)[C@@H](C)[C@@H]([C@@H](C)[C@@H](OC)[C@H](C)C(=O)O)O3)O2)O1 [monensin]
increase of apical shedding of [3H]5MTHF [4]: 70%
enhancement of apical accumulation of [3H]5MTHF [5]: 33%

Nc1ccc(C(=O)NCC(=O)O)cc1 [p-aminohippuric acid]
effect on uptake of [3H]5MTHF [3]: none of the inhibitors reduced the uptake

CCCN(CCC)S(=O)(=O)c1ccc(C(=O)O)cc1 [probenecid]
effect on uptake of [3H]5MTHF [3]: none of the inhibitors reduced the uptake

Folic acid conjugated to fluorescein isothiocyanate [FA-FITC]
delivery of FA-FITC to cells ([6]; combined with FRα-positive exosomes): delivered to astrocytes
internalization of FA-FITC by cells ([6]; free FA-FITC without exosomes): none of the cell types internalized free FA-FITC

B1: transferrin: rat transferrin (Rockland), known to induce exosome release from cells (protein, UniProt P12346 20-698, looked up)
Serotransferrin: VPDKTVKWCAVSEHENTKCISFRDHMKTVLPADGPRLACVKKTSYQDCIKAISGGEADAITLDGGWVYDAGLTPNNLKPVAAEFYGSLEHPQTHYLAVAVVKKGTDFQLNQLQGKKSCHTGLGRSAGWIIPIGLLFCNLPEPRKPLEKAVASFFSGSCVPCADPVAFPQLCQLCPGCGCSPTQPFFGYVGAFKCLRDGGGDVAFVKHTTIFEVLPQKADRDQYELLCLDNTRKPVDQYEDCYLARIPSHAVVARNGDGKEDLIWEILKVAQEHFGKGKSKDFQLFGSPLGKDLLFKDSAFGLLRVPPRMDYRLYLGHSYVTAIRNQREGVCPEGSIDSAPVKWCALSHQERAKCDEWSVSSNGQIECESAESTEDCIDKIVNGEADAMSLDGGHAYIAGQCGLVPVMAENYDISSCTNPQSDVFPKGYYAVAVVKASDSSINWNNLKGKKSCHTGVDRTAGWNIPMGLLFSRINHCKFDEFFSQGCAPGYKKNSTLCDLCIGPAKCAPNNREGYNGYTGAFQCLVEKGDVAFVKHQTVLENTNGKNTAAWAKDLKQEDFQLLCPDGTKKPVTEFATCHLAQAPNHVVVSRKEKAARVSTVLTAQKDLFWKGDKDCTGNFCLFRSSTKDLLFRDDTKCLTKLPEGTTYEEYLGAEYLQAVGNIRKCSTSRLLEACTFHKS
increase of apical shedding of [3H]5MTHF [4]: 36%
